Source: US12441733B2, “Substituted 2,4-dioxotetrahydropyrimidines as intermediates in the synthesis of bruton's tyrosine kinase inhibitors” (Novartis AG, priority 2018, dated 2025)

system: TMD8 cells; experiment: Resazurin cell viability (proliferation) assay in TMD8 DLBCL cells; assay type: cell-based; conditions: Homo sapiens, TMD8 cells (BTK dependent), 72 h, 50% growth inhibition vs vehicle, read-out: TMD8 Prol GI50
In short: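 TMD8 cells were seeded at 1×10^4 per well and treated 3 h later with compound, in an 8-point 1:4 dilution series starting at 1 μM, or DMSO, for 72 h at 37° C. Resazurin was added at 13 μg/ml final for the last 2 h, and fluorescence was read at ex 530/em 600 nm. GI50 versus vehicle was derived by curve fitting from triplicates.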

| Structure (SMILES) | GI50 [nM] |
| --- | --- |
| COc1ccc(C(=O)N2CCN(C(=O)N3CCN(Cc4ccc(-c5cc6c(-c7cc(F)cc(NC(=O)c8ccc(C(C)(C)O)cc8F)c7C)ncnc6[nH]5)cc4)CC3)CC2)cc1N1CCC(=O)NC1=O [Compound 22, N-(3-(6-(4-((4-(4-(3-(2,4-Dioxotetrahydropyrimidin-1(2H)-yl)-4-methoxybenzoyl)piperazine-1-carbonyl)piperazin-1-yl)methyl)phenyl)-7H-pyrrolo[2,3-d]pyrimidin-4-yl)-5-fluoro-2-methylphenyl)-2-fluoro-4-(2-hydroxypropan-2-yl)benzamide] | 4.82 |
| Cc1c(NC(=O)c2ccc(C(C)(C)O)cc2F)cc(F)cc1-c1ncnc2[nH]c(-c3ccc(CN4CCC5(CC4)CCN(C(=O)c4ccc(F)c(N6CCC(=O)NC6=O)c4)CC5)cc3)cc12 [Compound 14, N-(3-(6-(4-((9-(3-(2,4-Dioxotetrahydropyrimidin-1(2H)-yl)-4-fluorobenzoyl)-3,9-diazaspiro[5.5]undecan-3-yl)methyl)phenyl)-7H-pyrrolo[2.3-d]pyrimidin-4-yl)-5-fluoro-2-methylphenyl)-2-fluoro-4-(2-hydroxypropan-2-yl)benzamide] | 1.02 |
| COc1ccc(C(=O)N2CCC(OC3CCN(Cc4ccc(-c5cc6c(-c7cc(F)cc(NC(=O)c8ccc(C(C)(C)O)cc8F)c7C)ncnc6[nH]5)cc4)CC3)CC2)cc1N1CCC(=O)NC1=O [Compound 8, N-(3-(6-(4-((4-((1-(3-(2,4-dioxotetrahydropyrimidin-1(2H)-yl)-4-methoxybenzoyl)piperidin-4-yl)oxyl)piperidin-1-yl)methyl)phenyl)-7H-pyrrolo[2,3-d]pyrimidin-4-yl)-5-fluoro-2-methylphenyl)-2-fluoro-4-(2-hydroxypropan-2-yl)benzamide] | 0.39 |
| COc1ccc(C(=O)N2CCC(CN3CCC(Oc4ccc(-c5cc6c(-c7cc(F)cc(NC(=O)c8ccc(C(C)(C)O)cc8F)c7C)ncnc6[nH]5)cc4)CC3)CC2)cc1N1CCC(=O)NC1=O [Compound 19, N-(3-(6-(4-((1-((1-(3-(2,4-Dioxotetrahydropyrimidin-1(2H)-yl)-4-methoxybenzoyl)piperidin-4-yl)methyl)piperidin-4-yl)oxyl)phenyl)-7H-pyrrolo[2,3-d]pyrimidin-4-yl)-5-fluoro-2-methylphenyl)-2-fluoro-4-(2-hydroxypropan-2-yl)benzamide] | 0.45 |
| Cc1c(NC(=O)c2ccc(C(C)(C)O)cc2F)cc(F)cc1-c1ncnc2[nH]c(-c3ccc(CCN4CCC5(CC4)CCN(C(=O)c4cccc(N6CCC(=O)NC6=O)c4)CC5)cc3)cc12 [Compound 12, N-(3-(6-(4-(2-(9-(3-(2,4-Dioxotetrahydropyrimidin-1(2H)-yl)benzoyl)-3,9-diazaspiro[5,5]undecan-3-yl)ethyl)phenyl)-7H-pyrrolo[2,3-d]pyrimidin-4-yl)-5-fluoro-2-methylphenyl)-2-fluoro-4-(2-hydroxypropan-2-yl)benzamide] | 0.93 |
| COc1ccc(C(=O)N2CCC3(CCN(CCc4ccc(-c5cc6c(-c7cc(F)cc(NC(=O)c8ccc(C(C)(C)O)cc8F)c7C)ncnc6[nH]5)cc4)CC3)CC2)cc1N1CCC(=O)NC1=O [Compound 31, N-(3-(6-(4-(2-(9-(3-(2,4-Dioxotetrahydropyrimidin-1(2H)-yl)-4-methoxybenzoyl)-3,9-diazaspiro[5.5]undecan-3-yl)ethyl)phenyl)-7H-pyrrolo[2,3-d]pyrimidin-4-yl)-5-fluoro-2-methylphenyl)-2-fluoro-4-(2-hydroxypropan-2-yl)benzamide] | 0.46 |
| COc1ccc(C(=O)N2CCN(CCCCNCc3ccc(-c4cc5c(-c6cc(F)cc(NC(=O)c7ccc(C(C)(C)O)cc7F)c6C)ncnc5[nH]4)cc3)CC2)cc1N1CCC(=O)NC1=O [Compound 40, N-(3-(6-(4-(((4-(4-(3-(2,4-dioxotetrahydropyrimidin-1(2H)-yl)-4-methoxybenzoyl)piperazin-1-yl)butyl)amino)methyl)phenyl)-7H-pyrrolo[2,3-d]pyrimidin-4-yl)-5-fluoro-2-methylphenyl)-2-fluoro-4-(2-hydroxypropan-2-yl)benzamide] | 3.43 |
